The term IC50 denotes the point on the concentration scale where inhibition reaches its midpoint.

Structures are written as SMILES.

One test concerns diet-induced obese mice. Conditions: cited from earlier work.
Another test concerns the target IP6K1 (Homo sapiens (Human), UniProt Q92551). Description: Enzyme-coupled assay of IP6K1 activity (Dipp1-coupled, malachite green Pi release). The test is classed as biochemical. How it is done:
(§1) […] The cells were disrupted using a constant cell disruption system (Constant Systems) under 20 kPsi.
(§2) Pi release was determined with a malachite green colorimetric assay.^45 Where indicated, TNP (Cayman Chemical) was added to the assays (FIG. 2A-E).

The next test concerns the target IPMK (Homo sapiens (Human), UniProt Q8NFU5). Description: Enzyme-coupled assay, IPMK IC50. The test is classed as biochemical.
A further test has as its target IP6K2 (Homo sapiens (Human), UniProt Q9UHH9). As to the kind of experiment: Enzyme-coupled assay of IP6K2 activity (Dipp1-coupled, malachite green Pi release). The test is classed as biochemical. How it is done:
as §1, §2

A further test concerns the target IP6K3 (Homo sapiens (Human), UniProt Q96PC2). As to the kind of experiment: Enzyme-coupled assay of IP6K3 activity (Dipp1-coupled, malachite green Pi release). It counts as biochemical.
Where [1] appears, read: determined from enzyme-coupled assays.

Chain of IP6K1 (Q92551 whole entry): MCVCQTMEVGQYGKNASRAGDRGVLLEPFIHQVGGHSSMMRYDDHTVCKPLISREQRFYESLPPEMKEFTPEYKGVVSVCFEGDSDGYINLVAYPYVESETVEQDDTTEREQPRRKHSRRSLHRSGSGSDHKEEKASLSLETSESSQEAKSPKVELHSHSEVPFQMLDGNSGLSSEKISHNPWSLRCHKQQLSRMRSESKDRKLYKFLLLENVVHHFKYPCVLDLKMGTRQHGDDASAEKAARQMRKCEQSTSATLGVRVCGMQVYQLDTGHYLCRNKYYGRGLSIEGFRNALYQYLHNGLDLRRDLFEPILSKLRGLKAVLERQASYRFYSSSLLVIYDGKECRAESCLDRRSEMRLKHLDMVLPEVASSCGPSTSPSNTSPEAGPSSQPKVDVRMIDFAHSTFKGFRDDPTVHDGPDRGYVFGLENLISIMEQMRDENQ
Chain of IP6K2 (Q9UHH9 whole entry): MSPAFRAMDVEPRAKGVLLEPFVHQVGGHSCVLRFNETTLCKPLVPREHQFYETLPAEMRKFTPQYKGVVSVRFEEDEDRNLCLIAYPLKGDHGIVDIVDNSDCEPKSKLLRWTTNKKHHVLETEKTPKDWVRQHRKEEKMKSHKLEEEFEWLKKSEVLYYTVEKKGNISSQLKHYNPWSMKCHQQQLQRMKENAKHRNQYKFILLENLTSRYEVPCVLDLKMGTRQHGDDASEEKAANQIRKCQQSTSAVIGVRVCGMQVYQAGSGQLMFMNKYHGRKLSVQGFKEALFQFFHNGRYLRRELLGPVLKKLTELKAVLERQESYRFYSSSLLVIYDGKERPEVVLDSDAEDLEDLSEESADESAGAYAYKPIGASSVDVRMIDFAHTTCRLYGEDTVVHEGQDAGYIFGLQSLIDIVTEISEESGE
Chain of IPMK (Q8NFU5 whole entry, species assumed): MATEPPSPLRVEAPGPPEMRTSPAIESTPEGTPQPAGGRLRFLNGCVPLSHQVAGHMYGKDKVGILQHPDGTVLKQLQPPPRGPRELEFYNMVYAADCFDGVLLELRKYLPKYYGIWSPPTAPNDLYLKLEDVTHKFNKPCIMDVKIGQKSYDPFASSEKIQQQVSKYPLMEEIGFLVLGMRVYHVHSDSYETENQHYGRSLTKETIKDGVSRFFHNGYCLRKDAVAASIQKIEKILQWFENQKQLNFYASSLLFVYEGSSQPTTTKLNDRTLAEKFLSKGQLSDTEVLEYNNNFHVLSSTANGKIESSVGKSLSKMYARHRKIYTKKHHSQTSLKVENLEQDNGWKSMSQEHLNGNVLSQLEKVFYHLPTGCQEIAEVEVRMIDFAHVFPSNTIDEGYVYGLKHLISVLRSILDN
Chain of IP6K3 (Q96PC2 whole entry): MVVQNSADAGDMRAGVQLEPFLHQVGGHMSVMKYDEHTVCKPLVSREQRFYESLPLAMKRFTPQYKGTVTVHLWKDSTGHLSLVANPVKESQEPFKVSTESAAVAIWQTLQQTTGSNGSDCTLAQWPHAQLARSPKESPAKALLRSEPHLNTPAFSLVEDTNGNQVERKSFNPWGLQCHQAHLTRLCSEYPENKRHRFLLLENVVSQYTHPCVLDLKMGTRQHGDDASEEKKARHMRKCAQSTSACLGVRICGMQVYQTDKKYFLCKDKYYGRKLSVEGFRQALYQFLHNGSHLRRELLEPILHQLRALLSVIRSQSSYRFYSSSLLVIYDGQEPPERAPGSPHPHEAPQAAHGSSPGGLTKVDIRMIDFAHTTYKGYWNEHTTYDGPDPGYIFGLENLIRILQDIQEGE

Take `O=[N+]([O-])c1ccc(CNc2nc(NCc3cccc(C(F)(F)F)c3)nc3nc[nH]c23)cc1` [TNP, N2-(m-Trifluorobenzyl)-N6-(p-nitrobenzyl)purine]: in the test with diet-induced obese mice, the “Effect of treatment on obesity, insulin resistance and fatty liver” value was “ameliorates obesity, insulin resistance and fatty liver”.
Regarding `O=C(O)c1ccc2noc(-c3ccc(NC(=O)c4ccc(Cl)cc4)cc3)c2c1` [Compound 45], the IC50 against IP6K1 (enzyme-coupled assay, Table 2) is 100 to 1000 nM; against IPMK (enzyme-coupled assay, Table 2), 1000 to 100000 nM; at IP6K2 (enzyme-coupled assay, Table 2), 100 to 1000 nM; on IP6K3 (enzyme-coupled assay, Table 2), 1000 to 100000 nM.
Regarding `O=C(Nc1ccc(-c2onc3ccc(-c4nnn[nH]4)cc23)cc1)C1CCCC1` [Compound 72], the IC50 against IP6K1 (enzyme-coupled assay, Table 4) was 10 to 100 nM; against IPMK (enzyme-coupled assay, Table 4), 10 to 100 nM; against IP6K2 (enzyme-coupled assay, Table 4), 10 to 100 nM; against IP6K3 (enzyme-coupled assay, Table 4), below 10 nM.
Consider `O=c1[nH]c(-c2ccc3noc(-c4ccc(-c5ccccc5)cc4)c3c2)no1` [Cmpd 125], for which the IC50 was 10 to 100 nM against IP6K1 (setting [1]), below 10 nM on IPMK (setting [1]), 10 to 100 nM at IP6K2 (setting [1]) and below 10 nM at IP6K3 (setting [1]).
Regarding `O=C(Nc1ccc(-c2onc3ccc(-c4nnn[nH]4)cc23)cc1)C1CC1` [Compound 71], the IC50 at IP6K1 (enzyme-coupled assay, Table 4) is 10 to 100 nM; at IPMK (enzyme-coupled assay, Table 4), below 10 nM; on IP6K2 (enzyme-coupled assay, Table 4), 100 to 1000 nM; against IP6K3 (enzyme-coupled assay, Table 4) it was below 10 nM.

Values taken from patent publication US20250154115A1, “ARYLBENZOISOXAZOLE COMPOUNDS AS IP6K AND IPMK INHIBITORS AND METHODS OF USE THEREOF” (THE UNIVERSITY OF NORTH CAROLINA AT CHAPEL HILL, priority 2022, published 2025).
